According to patent publication US7642400B2, “Protein kinase C iota” (Mayo Foundation for Medical Education and Research, priority 2004, dated 2010):

Experiments:
[1] = molecular target: T1, interaction of PKCι polypeptides with PAR6 polypeptides (Homo sapiens, UniProt P41743); test: Primary screen: FRET assay of PKCι113-YFP-N1 (PYN) and PAR6125-CFP-C1; conditions: FIG. 18; less binding as concentration increased
T1 construct: amino acids 1-113 or a full-length PKCι polypeptide; 6xHis; made in house
T1 sequence (P41743 10-122): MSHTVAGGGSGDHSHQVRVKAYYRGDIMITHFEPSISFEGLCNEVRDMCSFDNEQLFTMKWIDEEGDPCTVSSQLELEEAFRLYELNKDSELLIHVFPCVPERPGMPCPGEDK
Procedure: A primary screen was performed as follows to identify test compound having the potential to inhibit the interaction of PKCι polypeptides with PAR6 polypeptides. Bacterially expressed PKCι113-YFP-N1 (PYN) was isolated from the soluble fraction of bacterial lysates by affinity purification according to the manufacturer's protocol (B-PER 6×His Purification Kit; Pierce). The purified polypeptide was dialyzed against Tris buffer (50 mM Tris, pH 8.0; 135 mM NaCl; 10% glycerol; 0.002% EDTA) containing 2 M urea. PAR6125-CFP-C1 recombinant polypeptide was isolated from the inclusion body pellets of bacterial lysates using the B-PER reagent (Pierce) according to the manufacturer's protocol. […] Yields were measured by fluorescence in a SpectraMax Gemini microplate reader (Molecular Devices).
To perform the assay, PYN was diluted to 4000 relative fluorescent units/50 μl in Tris buffer plus 1 M urea, and PAR6125-CFP-C1 was diluted to 400 relative fluorescent units/50 μl Tris buffer plus 1 M urea. […] Fluorescence was measured in a SpectraMax Gemini plate reader. Cyan fluorescence was measured at excitation 395 nm, emission 475 nm, and cutoff of 455 nm. Yellow fluorescence was measured at excitation 395 nm, emission 529, and cutoff of 515=n. […]

[2] = molecular target: T1, interaction of PKCι polypeptides with PAR6 polypeptides; test: Secondary screen: PYN bound to plate-immobilised biotin-tagged PAR6; type: binding; conditions: for Secondary Screen: amount of PYN bound to biotin-tagged PAR6 plates
Procedure: Multiple test compounds that were classified as hits in the primary screen as well as additional related compounds were evaluated in a secondary screen designed as follows. Briefly, a 96-well microtiter plate coated with streptavidin (Nunc #436014) was incubated for 2-4 hours at room temperature with 100 μl of a 20-30 μg/ml solution of biotin-tagged PAR6 (whole polypeptide) in phosphate-buffered saline containing Tween-20 (PBST). Plates were washed twice with PBST, then once with incubation buffer (50 mM Tris, pH 8.0; 135 mM NaCl; 10% glycerol; 0.002% EDTA). Incubation buffer (50 μl) was added to each well. The compounds to be tested were added (10 μl) followed by PYN (50 μl) diluted in incubation buffer to an approximate concentration of 4000-5000 relative fluorescent units per 50 μl. Plates were incubated overnight at 4° C. Plates were washed twice with incubation buffer, after which 50 μl incubation buffer was added to retain moisture in the wells. The amount of PYN bound on the plates was determined by measuring yellow fluorescence (532/526) in a Typhoon imager. Fluorescence was quantitated by Softmax Pro software.
A dose-response analysis was performed using the secondary screening assay and increasing amounts (e.g., 0, 0.1, 1, 10, 100, and […]) of gossypol, hexestrol, thimerosal, ebselen, ATG, ATM, ellagic acid, cisplatin, apomorphine, or phenylmercuric acetate.

A549 cells = test: Soft agar growth assay (anchorage-independent growth) of A549 cells; type: cell-based, human; conditions: A549 cells, FIG. 20
Procedure: (§1) Anchorage-independent growth was assayed by the ability of cells to form colonies in soft agar. The bottom agar consisted of growth medium containing 10% FBS and 0.75% agarose in 60-mm tissue culture dishes. Nine hundred cells were resuspended in growth medium containing 10% FBS and 0.75% agarose, and plated on top of the bottom agar. The cells were incubated at 37° C. in 5% CO2. Cell colonies were visualized and quantified under a dissecting microscope (Olympus) after 4-6 weeks in culture.
as §1, with “Soft Agar Growth Assays: Anchorage-independent growth” for “Anchorage-independent growth”, “and 0.75% agarose and plated” for “and 0.75% agarose, and plated”, “bottom agar. ATG was added at the indicated concentration to both bottom and top agar solutions. The cells” for “bottom agar. The cells”

[3] = tested on: A549 human lung carcinoma cells; test: Tumorigenicity in nude mice: A549 subcutaneous tumors; type: in vivo, mouse; conditions: 200 mg/kg body weight intraperitoneal daily, versus saline; FIG. 21
Procedure: Tumorigenicity in Nude Mice: The growth of A549 human lung carcinoma cells as established subcutaneous tumors was studied in athymic nude mice (Harlan-Sprague-Dawley, Indianapolis, Ind.) in a defined pathogen-free environment. Briefly, A549 cells were grown in F-12K Nutrient Mixture containing 10% FBS. A549 cells were harvested and resuspended in serum-containing medium. 5×10^6 cells in 100 μl of growth medium were injected subcutaneously into the flank of 4-6 week old female nude mice. Once palpable tumors were established (15 days after inoculation) animals were randomly segregated into two groups. One group received intraperitoneal injections of ATG (200 mg/kg body weight) daily; the second group received an equivalent volume of diluent control solution. Tumor size was measured daily. Tumor growth was quantified by measuring the tumors in three dimensions with calipers. Tumor volume (mm^3) was calculated using the formula: 0.5236 (L×W×H), where L represents the length of the tumor, W represents the width of the tumor, and H represents the height of the tumor. Animals were individually monitored throughout the experiment.

OC[C@H]1O[C@H]([S-])[C@H](O)[C@@H](O)[C@@H]1O.[Au+] [Aurothioglucose]
dose-response in the FRET assay: relative binding of PKCι and PAR6 polypeptides [1]: dose-dependent effect
Secondary Screen [2]: Confirmed
Secondary Screen ([2]; listed as aurothioglucose): confirmed
dose-response analysis using the secondary screening assay ([2]; increasing amounts, e.g. 0, 0.1, 1, 10, 100, and 100 μM): dose-dependent response was detected
soft agar growth (A549 cells; 10 μM): decreased soft agar growth
soft agar growth (A549 cells; 100 μM): decreased soft agar growth
tumor growth (tumor volume) [3]: less tumor growth
